The species entered for assay [1] is Homo sapiens. Description: Compound was tested for inhibition of ADP induced platelet aggregation by using human platelet rich plasma(PRP) assay. It is filed as functional.
The species named for assay [2] is Homo sapiens. Description: Compound was tested for inhibition of ADP induced platelet aggregation by using human platelet rich plasma (PRP) assay. The format is functional.

Usually IC50 stands for the concentration at which inhibition is half-maximal. The low end stands for higher potency, the high end for lower potency. In the case of `CCCCOC(=O)N[C@@H](CNC(=O)c1cc(OCc2ccc(C(=N)N)cc2)no1)C(=O)O`, in the assay filed under Homo sapiens [1], the half-maximal inhibitory concentration (IC50) was found to be 60 nM.
In the assay filed under Homo sapiens [1], `CCCCOC(=O)N[C@@H](CNC(=O)c1cc(OCc2ccc(C(=N)N)cc2)no1)C(=O)OC` displayed an IC50 of 50 nM. This IC50 and that of the molecule before are within 1.5-fold of each other.
Turning to `CCCCOC(=O)N[C@@H](CNC(=O)c1cc(OCC2CCN(C(=N)N)CC2)no1)C(=O)OC`, the IC50 in the assay filed under Homo sapiens [2] is 200 nM.
With `CCCCOC(=O)N[C@@H](CNC(=O)c1cccc(COc2ccc(C(=N)N)cc2)c1)C(=O)OC`, the IC50 in the assay filed under Homo sapiens [1] was found to be 32 nM. That is a double-digit nanomolar value.

Source of the values: ChEMBL document CHEMBL1130705, “Synthesis and antiplatelet effects of an isoxazole series of glycoprotein IIb/IIIa antagonists” (Bioorg Med Chem Lett, 1998).
